From US8445246B2, “Flavin-binding glucose dehydrogenases” (Kikkoman Corporation, priority 2009, dated 2013)

Experiments:
[1] = tested on: flavin-binding GDH of the invention; test: Inhibiting effect of 1,10-phenanthroline; format: biochemical
Excerpt: (§1) The inhibiting effect of […] on the activity of the flavin-binding GDH of the invention was examined in the following manner.

McGDH = test: Inhibiting effect of 1,10-phenanthroline on McGDH; format: biochemical, Mucor circinelloides f. circinelloides NISL0117
Excerpt: as §1

MpGDH = test: Inhibiting effect of 1,10-phenanthroline on MpGDH; format: biochemical, Mucor prainii NISL0103
Excerpt: as §1

MjGDH = test: Inhibiting effect of 1,10-phenanthroline on MjGDH; format: biochemical, Mucor javanicus NISL0111
Excerpt: as §1

inhibiting effect ([1]; 1 mM 1,10-phenanthroline): 2-4%
inhibition rate ([1]; 5 mM 1,10-phenanthroline): about 10%
Structure (SMILES): c1cnc2c(c1)ccc1cccnc12 [1,10-phenanthroline]
GDH inhibition rate (%) (McGDH; 1,10-phenanthroline 1 mM): 1.95%
GDH inhibition rate (%) (McGDH; 1,10-phenanthroline 5 mM): 8.23%
GDH inhibition rate (%) (McGDH; 1,10-phenanthroline 10 mM): 12.8%
GDH inhibition rate (%) (McGDH; 1,10-phenanthroline 25 mM): 36.2%
GDH inhibition rate (%) (McGDH; 1,10-phenanthroline 50 mM): 68.5%
GDH inhibition rate (%) (MpGDH; 1,10-phenanthroline 1 mM): 3.72%
GDH inhibition rate (%) (MpGDH; 1,10-phenanthroline 5 mM): 10.1%
GDH inhibition rate (%) (MpGDH; 1,10-phenanthroline 10 mM): 23.9%
GDH inhibition rate (%) (MpGDH; 1,10-phenanthroline 25 mM): 44.1%
GDH inhibition rate (%) (MpGDH; 1,10-phenanthroline 50 mM): 68.6%
GDH inhibition rate (%) (MjGDH; 1,10-phenanthroline 1 mM): 3.27%
GDH inhibition rate (%) (MjGDH; 1,10-phenanthroline 5 mM): 13.1%
GDH inhibition rate (%) (MjGDH; 1,10-phenanthroline 10 mM): 23.5%
GDH inhibition rate (%) (MjGDH; 1,10-phenanthroline 25 mM): 64.7%
GDH inhibition rate (%) (MjGDH; 1,10-phenanthroline 50 mM): 88.9%
